{"source": "paper PMC9081362", "about": "“Novel MDM2 Inhibitor XR-2 Exerts Potent Anti-Tumor Efficacy and Overcomes Enzalutamide Resistance in Prostate Cancer” (Frontiers in Pharmacology, 2022)", "molecular_target": "MDM2 (Homo sapiens, UniProt Q00987)", "sequence (Q00987 whole entry)": "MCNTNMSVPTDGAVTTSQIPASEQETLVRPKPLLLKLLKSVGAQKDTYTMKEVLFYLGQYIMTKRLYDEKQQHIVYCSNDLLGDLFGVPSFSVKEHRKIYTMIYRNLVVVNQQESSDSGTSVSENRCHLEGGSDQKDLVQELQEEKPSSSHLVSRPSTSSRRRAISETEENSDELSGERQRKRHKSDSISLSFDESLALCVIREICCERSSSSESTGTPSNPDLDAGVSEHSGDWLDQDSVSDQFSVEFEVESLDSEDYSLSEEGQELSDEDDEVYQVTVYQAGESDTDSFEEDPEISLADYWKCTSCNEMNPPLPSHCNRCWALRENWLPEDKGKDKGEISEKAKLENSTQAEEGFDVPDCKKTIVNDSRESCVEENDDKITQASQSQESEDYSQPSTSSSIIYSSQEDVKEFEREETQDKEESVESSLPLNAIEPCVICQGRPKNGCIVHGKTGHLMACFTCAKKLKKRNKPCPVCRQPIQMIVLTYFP", "sequence (P04637 whole entry partner)": "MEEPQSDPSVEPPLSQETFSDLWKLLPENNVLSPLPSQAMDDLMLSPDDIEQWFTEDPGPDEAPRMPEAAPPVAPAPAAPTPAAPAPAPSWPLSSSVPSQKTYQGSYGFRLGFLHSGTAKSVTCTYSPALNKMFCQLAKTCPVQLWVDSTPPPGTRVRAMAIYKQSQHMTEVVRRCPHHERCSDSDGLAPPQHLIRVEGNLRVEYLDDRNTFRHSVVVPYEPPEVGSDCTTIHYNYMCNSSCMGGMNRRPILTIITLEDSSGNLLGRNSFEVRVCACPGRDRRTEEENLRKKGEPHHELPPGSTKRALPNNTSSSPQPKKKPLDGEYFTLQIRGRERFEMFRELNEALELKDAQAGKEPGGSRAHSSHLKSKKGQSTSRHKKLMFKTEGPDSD", "assay": "HTRF MDM2-p53 binding (displacement) assay"}
{"smiles": "COCCOCCOCCOC(=O)N1[C@@H](CC(C)(C)C)[C@@]2(C(=O)Nc3cc(Cl)ccc32)[C@@H](c2cccc(Cl)c2F)[C@@H]1C(=O)Nc1ccc(C(N)=O)cc1OC", "note": "[XR-2, 2-(2-(2-methoxyethoxy)ethoxy)ethyl-(2′S,3R,4′S,5′R)-5'-((4-carbamoyl-2-methoxyphenyl)carbamoyl)-6-chloro-4'-(3-chloro-2-fluorophenyl)-2′-neopentyl-2-oxospiro[indoline-3,3′-pyrrolidine]-1′-carboxylate]", "values": [{"measurement": "HTRF MDM2-p53 binding (displacement) assay", "result": "The homogeneous time-resolved fluorescence binding assay proved that XR-2 directly inhibited MDM2–p53 interaction"}]}
